# Patent US9066887B2, “Transdermal therapeutic system having urea components” (LTS LOHMANN THERAPIE-SYSTEME AG, priority 2008, dated 2015)
# Assay: In vitro permeation from TTS in Franz diffusion cell
# Details: TTS with 10% (m/m) active ingredient and 20% (m/m) solid urea of particle size >100 μm (B) versus TTS containing no urea (A); acrylate adhesive matrix; cow udder, 32° C., 72 h
# Method: A commercial acrylate adhesive was dissolved in a solvent. […] This acrylate adhesive composition was cast to form a reservoir layer 500 μm in thickness, and the solvent was evaporated, producing a matrix basis weight of 100 g/m^2. A number of experimental TTS were punched from this active ingredient laminate, and were then used for experiments in vitro.
# The Franz diffusion cell is composed of a donor compartment and an acceptor compartment, separated by a membrane (cow udder). The donor compartment contains the TTS, while, for the acceptor compartment, a physiological buffer was used, conditioned to a temperature of 32° C. Samples were taken from the acceptor compartment over a period of 72 h, and were analyzed by HPLC for the permeated amount of active ingredient.
row,"increase in active ingredient permeation through the skin (cumulative permeated amount), factor",Compound
1,9,c1ccc(Cn2c(N3CCNCC3)nc3ccccc32)cc1 [lerisetron]
2,4,Clc1ccc2nsnc2c1NC1=NCCN1 [tizanidine]

row,Compound,"increase in active ingredient permeation through the skin (cumulative permeated amount), factor"
1,Cn1c(=O)c2c(ncn2C)n(C)c1=O [caffeine],8
